Measurements reported in US6362369B1, “Phthalic acid diamide derivatives fluorine-containing aniline compounds as starting material, agricultural and horticultural insecticides, and a method for application of the insecticides” (Nihon Nohyaku Co., Ltd., priority 1997, dated 2002).

system: diamondback moth (Plutella xylostella); assay: Insecticidal effect on diamondback moth (Test Example 1); format: in vivo; conditions: diamondback moth; mortality judged by criterion of Test Example 1
Experimental: Insecticidal effect on diamondback moth (Plutella xylostella) Adult diamondback moths were released and allowed to oviposit on a Chinese cabbage seedling. […] After air-drying, it was allowed to stand in a room thermostated at 25° C. Six days after the immersion, the hatched insects were counted. The mortality was calculated according to the following equation and the insecticidal effect was judged according to the criterion shown below. The test was carried out with triplicate groups of 10 insects. [table]

| Compound | Insecticidal effect, Test Example 1 |
| --- | --- |
| CCOCCNC(=O)c1cccc(I)c1C(=O)Nc1ccc(C(F)(F)C(F)(F)F)cc1C [compound 984] | A (100) |
| C=CCNC(=O)c1cccc(I)c1C(=O)Nc1ccc(C(F)(F)C(F)(F)F)cc1C [compound 988] | A (100) |
| Cc1cc(C(F)(F)C(F)(F)F)ccc1NC(=O)c1c(I)cccc1C(=O)NC1CCCC1 [compound 992] | A (100) |
| Cc1cc(C(F)(F)C(F)(F)F)ccc1NC(=O)c1c(I)cccc1C(=O)NCC(C)C [compound 1006] | A (100) |
| Cc1cc(C(F)(F)C(F)(F)F)ccc1NC(=O)c1c(I)cccc1C(=O)NC1CC1 [compound 1025] | A (100) |
| Cc1cc(C(F)(F)C(F)(F)F)ccc1NC(=O)c1c(I)cccc1C(=O)NC(C)C(C)C (stereo not shown) [compound 1034] | A (100) |
| CCCNC(=O)c1cccc(I)c1C(=O)Nc1ccc(OC(F)(F)C(F)F)cc1C [compound 1059] | A (100) |
| CC(C)(C)NC(=O)c1ccccc1C(=O)Nc1ccc2c(c1)OC(F)(F)C(F)(F)O2 [compound 1065] | A (100) |
| Cc1cc(C(F)(F)C(F)(F)F)ccc1NC(=O)c1cccc(I)c1C(=O)N1CCCCC1 [compound 1082] | A (100) |
| Cc1cc(C(F)(F)C(F)(F)F)ccc1NC(=O)c1cccc(I)c1C(=O)N1CCC(C)CC1 [compound 1083] | A (100) |
| CCN(CC)C(=O)c1cccc([N+](=O)[O-])c1C(=O)Nc1ccc(OC(F)(F)C(F)F)cc1C [compound 1137] | A (100) |
| CCN(CC)C(=O)c1cccc([N+](=O)[O-])c1C(=O)Nc1ccc(OC(F)(F)F)cc1 [compound 1139] | A (100) |
| CCN(CC)C(=O)c1c(I)cccc1C(=O)Nc1ccc2oc(-c3ccc(C(F)(F)F)cc3)nc2c1 [compound 1175] | A (100) |
| CCN(CC)C(=O)c1c(I)cccc1C(=O)Nc1ccc2nc(-c3ccccc3C(F)(F)F)oc2c1 [compound 1178] | A (100) |
| CC(C)NC(=O)c1c(I)cccc1C(=O)Nc1ccc2nc(C(F)(F)C(F)(F)F)oc2c1 [compound 1180] | A (100) |
| CC(C)(C)NC(=O)c1c(I)cccc1C(=O)Nc1ccc2nc(C(F)(F)C(F)(F)F)oc2c1 [compound 1181] | A (100) |
| CCN(CC)C(=O)c1c(I)cccc1C(=O)Nc1ccc2nc(C(F)(F)C(F)(F)F)oc2c1 [compound 1182] | A (100) |
| CCN(CC)C(=O)c1c(OC(F)(F)F)cccc1C(=O)Nc1ccc(C(F)(C(F)(F)F)C(F)(F)F)cc1C [compound 1238] | A (100) |
| Cc1cc(OC(F)(F)F)ccc1NC(=O)c1cc(I)ccc1C(=O)NC(C)C [compound 1247] | C (89-80) |
| Cc1cc(OC(F)(F)C(F)F)ccc1NC(=O)c1cc(I)ccc1C(=O)NC(C)C [compound 1249] | A (100) |
| Cc1cc(OC(F)(F)F)ccc1NC(=O)c1ccc(F)c(Cl)c1C(=O)NC(C)(C)C [compound 1260] | A (100) |
| Cc1cc(OC(F)(F)F)ccc1NC(=O)c1ccc(F)c(F)c1C(=O)NC(C)C [compound 1283] | A (100) |
| Cc1cc(OC(F)(F)F)ccc1NC(=O)c1cc(F)c(F)cc1C(=O)NC(C)(C)C [compound 1288] | A (100) |
| Cc1cc(OC(=C(C(F)(F)F)C(F)(F)F)C(F)(F)C(F)(F)F)ccc1NC(=O)c1cccc(Cl)c1C(=O)NC(C)C [compound 1291] | A (100) |
| Cc1cc(C(F)(F)C(F)(F)F)ccc1NC(=O)c1cccc(Cl)c1C(=O)NCCc1ccccc1 [compound 1319] | A (100) |
| Cc1cc(C(F)(F)C(F)(F)F)ccc1NC(=O)c1c(Cl)cccc1C(=O)NC(C)c1ccccc1 (stereo not shown) [compound 1322] | A (100) |
| CCCONC(=O)c1c(Cl)cccc1C(=O)Nc1ccc(C(F)(F)C(F)(F)F)cc1C [compound 1327] | A (100) |
| CCCONC(=O)c1cccc(Cl)c1C(=O)Nc1ccc(C(F)(F)C(F)(F)F)cc1C [compound 1328] | A (100) |
| Cc1cc(C(F)(F)C(F)(F)F)ccc1NC(=O)c1c(Cl)cccc1C(=O)NCCCc1ccccc1 [compound 1332] | A (100) |

same assay, conditions: mortality judged according to the criterion shown in Test Example 1

| Compound | Insecticidal effect on diamondback moth (Test Example 1), judged grade |
| --- | --- |
| COC(=O)c1cccc(C(=O)NC(C)C)c1C(=O)Nc1ccc(Cl)cc1C [compound 802] | D (79-50) |
| CC(C)NC(=O)c1cccc(-c2ccccc2)c1C(=O)Nc1ccc(OC(F)(F)F)cc1 [compound 808] | A (100) |
| CC(C)N(C)C(=O)c1ccccc1C(=O)Nc1ccc(C(F)(F)F)cc1 [compound 824] | A (100) |
| Cc1cc(OC(F)F)ccc1NC(=O)c1cccc([N+](=O)[O-])c1C(=O)N(C)C(C)C [compound 825] | A (100) |
| Cc1cc(Cl)ccc1N(C)C(=O)c1ccccc1C(=O)NC(C)C [compound 827] | A (100) |
| CCCCNC(=O)c1c(C(=O)Nc2cc(Cl)ccc2C)cccc1[N+](=O)[O-] [compound 830] | C (89-80) |
| Cc1cc(OC(F)F)ccc1NC(=O)c1cccc([N+](=O)[O-])c1C(=O)NCC(C)C [compound 832] | A (100) |
| CCC(C)NC(=O)c1ccccc1C(=O)Nc1ccc(C(F)(F)F)cc1 (stereo not shown) [compound 835] | A (100) |
| CCC(C)NC(=O)c1cccc(Cl)c1C(=O)Nc1ccc(OC(F)F)cc1C (stereo not shown) [compound 837] | A (100) |
| CCC(CC)NC(=O)c1c(C(=O)Nc2ccc(OC(F)F)cc2C)cccc1[N+](=O)[O-] [compound 845] | A (100) |
| Cc1cc(OC(F)F)ccc1NC(=O)c1cccc([N+](=O)[O-])c1C(=O)NC(C)C(C)C (stereo not shown) [compound 846] | A (100) |
| O=C(Nc1ccc(C(F)(F)F)cc1)c1ccccc1C(=O)NC1CC1 [compound 848] | A (100) |
| Cc1ccc(Cl)cc1NC(=O)c1cccc([N+](=O)[O-])c1C(=O)NC1CCC1 [compound 854] | A (100) |
| Cc1ccc(F)cc1NC(=O)c1cccc([N+](=O)[O-])c1C(=O)NC1CCC1 [compound 855] | A (100) |
| Cc1ccc(Cl)cc1NC(=O)c1cccc([N+](=O)[O-])c1C(=O)NC1CCCCC1 [compound 859] | D (79-50) |
| Cc1ccc(F)cc1NC(=O)c1cccc([N+](=O)[O-])c1C(=O)NCC1CC1 [compound 860] | A (100) |
| Cc1ccc(F)cc1NC(=O)c1cccc([N+](=O)[O-])c1C(=O)NCCCl [compound 861] | A (100) |
| Cc1ccc(Cl)cc1NC(=O)c1ccccc1C(=O)NCC(F)(F)F [compound 864] | A (100) |

| Compound | Insecticidal effect on diamondback moth (Test Example 1), judged grade |
| --- | --- |
| C=CCNC(=O)c1ccccc1C(=O)Nc1ccc(C(F)(F)F)cc1 [compound 865] | A (100) |
| C=CCNC(=O)c1c(C(=O)Nc2cc(Cl)ccc2C)cccc1[N+](=O)[O-] [compound 866] | D (79-50) |
| C#CCNC(=O)c1c(C(=O)Nc2ccc(OC(F)F)cc2C)cccc1[N+](=O)[O-] [compound 870] | A (100) |
| COCCNC(=O)c1c(C(=O)Nc2cc(Cl)ccc2C)cccc1[N+](=O)[O-] [compound 871] | A (100) |
| CCOC(CNC(=O)c1c(C(=O)Nc2ccc(OC(F)F)cc2C)cccc1[N+](=O)[O-])OCC [compound 875] | A (100) |
| Cc1ccc(Cl)cc1NC(=O)c1cccc([N+](=O)[O-])c1C(=O)NC(C)c1ccccc1 (stereo not shown) [compound 878] | C (89-80) |
| Cc1cc(Br)ccc1NC(=O)c1cccc([N+](=O)[O-])c1C(=O)NCc1cccnc1 [compound 888] | D (79-50) |
| CC(C)NC(=O)c1cccc(F)c1C(=O)Nc1ccc(Oc2ccc(C(F)(F)F)cc2Cl)cc1F [compound 902] | A (100) |
| CC(C)NC(=O)c1cccc(Cl)c1C(=O)Nc1ccc(Oc2ccc(C(F)(F)F)cc2Cl)cc1F [compound 904] | A (100) |
| CC(C)NC(=O)c1cccc(Cl)c1C(=O)Nc1ccc(C=C(Cl)C(F)(F)F)cc1 [compound 912] | A (100) |
| CC(C)NC(=O)c1c(Cl)cccc1C(=O)Nc1ccc(C=C(Br)Br)cc1 [compound 913] | A (100) |
| CC(C)NC(=O)c1cccc(Cl)c1C(=O)Nc1ccc(C=C(Br)Br)cc1 [compound 914] | A (100) |
| CC(C)NC(=O)c1cccc(Cl)c1C(=O)Nc1ccc(C=C(Cl)Cl)cc1 [compound 916] | A (100) |
| CC(C)NC(=O)c1cccc(I)c1C(=O)Nc1ccc(C=C(Cl)C(F)(F)F)cc1 [compound 918] | A (100) |
| CCc1cc(I)ccc1NC(=O)c1cccc(I)c1C(=O)NC(C)C [compound 919] | A (100) |
| CCc1cc(I)ccc1NC(=O)c1c(I)cccc1C(=O)NC(C)C [compound 920] | A (100) |
| CCc1ccc(Cl)c(CC)c1NC(=O)c1cccc(Cl)c1C(=O)NC(C)C [compound 924] | A (100) |
